# Test system: P. taeda embryogenic cell lines
# Assay: Growth of non-transgenic, transgenic and mixed pine cell cultures on GENETICIN selection medium with support treatments, P. taeda
# Assay type: cell-based, Pinus taeda
# Details: 15 mg/L in DCR selection medium
# Procedure: Stably transformed pine tissue had been generated using a particle bombardment method and selected for the presence of an inserted antibiotic resistance gene, nptII, on DCR2 gelled medium (Table 5), in this example containing 15 mg/L GENETICIN®, hereinafter referred to as DCR selection medium. Additionally, the presence of an inserted gus gene, encoding a β-glucuronidase enzyme in tissue culture cells, had been detected by deep blue staining of cells from each of the transgenic lines upon exposure to a colorigenic glucuronidase enzyme substrate (commercially available from Inalco, Inc.), according to techniques well known to those skilled in the art of plant transformation, and the presence of both transgenes had been verified by use of the polymerase chain reaction (PCR) using techniques well known to those skilled in the art of molecular biology. The transgenic pine lines containing and expressing both transgenes had then been cryopreserved as described in Example 4 above. […]
# Cells, or the supports bearing the cells, were transferred onto fresh selection medium at biweekly intervals, and fresh weight of cells for each plate was recorded at each biweekly transfer, for a total of eight weeks (Table 19). […]
smiles,measurement,value
CN[C@@H]1[C@@H](O)[C@@H](O[C@@H]2[C@@H](O)[C@H](O[C@H]3O[C@H]([C@@H](C)O)[C@@H](O)[C@H](O)[C@H]3N)[C@@H](N)C[C@H]2N)OC[C@]1(C)O [GENETICIN®],selection of non-transformed versus transformed pine tissue,sufficient to kill the non-transformed tissue while allowing growth of the transformed tissue
